Series [1] is described as follows: Whole body activity by handheld monitor at 1 m from the dog. In kind it is in vivo, dogs. The text has this: All dogs were held overnight in a protected area with institutionally approved radiation safety protocols. Dogs were released from the facility after whole body radiation levels were less than 0.5 mR/hr at the skin surface and less than 0.05 mR/hr at 1 m.

A short description of series [2]: Safety monitoring in dogs (vital signs, blood pressure, complete blood counts, serum biochemistry). In kind it is in vivo. Particulars: normal dogs and those with NHL.
Experimental: All 3 dogs were mixed breed dogs and after physical examination were clinically normal. […] Images of the whole body in orthogonal planes were acquired at 2 hours, 4 hours, and 6 hours after injection. Complete blood counts and serum biochemistry were performed before and after imaging.
Series [3] in a line: Organ uptake by gamma camera scintigraphy (organ:muscle ratio and percent injected dose). In kind it is in vivo, dogs. The method, then:
All dogs were imaged with a Gamma camera (Technicare Omega 500, Solon, Ohio, or IS2, Ottawa, Ontario). Images were obtained of the whole body in overlapping segments, in right lateral, left lateral, and sternal recumbency. Images were obtained to 200,000 counts, with a 256×256 bit matrix and 16-bit depth. A camera standard of 200 uCi in 10 mL of water was included in each image to ensure stable measurements over the scan period. Camera sensitivity was determined by placing the camera standard 30 cm from the detector and scanning for 1 minute. This calibration factor was used to convert individual organ emission counts to mCi.
Chemotherapy consisted of prednisone, vincristine, cyclophosphamide, and L-asparaginase. Two dogs had whole body computed tomography (CT) performed.
ROIs were drawn on the 2 hour images and duplicated for the opposite lateral projection and subsequent time points, and adjusted for altered patient position. […]
Organs that were clearly delineated on conjugate projections (liver, GI, bone marrow, lung) were measured using the geometric mean method, and smaller or peripherally located organs (kidney, mandibular lymph nodes, salivary gland) were measured using the effective point source method. Depth for depth correction was measured on orthogonal images. Lung activity was measured using an ROI in a posterior region and normalized to the total pixels of the lung. […] […] Camera sensitivity was measured using the camera standard. Percent injected dose and organ:muscle ratio were calculated for each imaging study at each time point. Imaging results are presented in graphical format as percent injected dose for each organ evaluated, as well as organ:muscle ratios.

On the set-up of series [4]: method as in PMID 16767086. Conditions: human plasma; cited from earlier work.
The test system of another series is canine lymphoma. Further details: method as in PMID 16767086, PMID 19289419, PMID 22177114. Conditions: in vitro, canine cell lines and tissue samples; less than in human cell lines and xenografts; cited from earlier work. For orientation: In xenograft studies the graft and the host belong to different species.
A further series deals with activated α4β1 integrin. The arrangement: method as in PMID 9479864. Conditions: cited from earlier work.
The test system of another series is normal lymphocytes. The arrangement: method as in PMID 16767086, PMID 22177114. Conditions: increases with activation; cited from earlier work.

As for `Cc1ccccc1NC(=O)Nc1ccc(CC(=O)N[C@@H](CCCCNC(=O)/C=C/c2cccnc2)C(=O)N[C@@H](CCCC(=O)O)C(=O)NC2(C(=O)NCCOCCOCCNC(=O)CCC(=O)NCCOCCOCCNC(=O)CCC(=O)N[C@@H](CCCCNC(=O)c3ccc(NN)nc3)C(N)=O)CCCCC2)cc1` [^99mTc-LLP2A-HYNIC, metal not drawn], the “mean whole body activity” value in series [1] (5 minutes post-injection) was 0.5 mR/h; in series [1] (360 min) it was 0.13 mR/h. Also, in series [1] (5 minutes post-injection), the “whole body activity, range” value is on record as 0.2–0.8 mR/h. In addition, the whole body activity in series [1] (24 hours) is recorded as 0.04 mR/h. The overall safety result in series [2] is “safe”. In addition, the route of elimination result in series [3] (dogs) is “mainly eliminated through the kidneys”. Further, the “organ:muscle ratio” value was found to be 7.00 in series [3] (kidney affected with lymphoma (dog L1), highest ratio of tumor tissues) and 5.27 in series [3] (unaffected kidney in the same dog (L1)).

Take “N-[[4-[[[(2-ethylphenyl)amino]carbonyl]amino]phenyl]acetyl]-N ^ε-6-[(2E)-1-oxo-3-(3-pyridinyl-2-propenyl)]-L-lysyl-L-2-aminohexanedioyl-(1-amino-1-cyclohexane)carboxamide [LLP2A]”: in series [4], the resistance to proteases result is reported as “resistant to proteases in human plasma”. The “affinity to canine lymphoma” value with canine lymphoma was “good affinity”. The “affinity to activated α4β1 on lymphoma cells” value with activated α4β1 integrin is “high affinity”. For the same compound, the “affinity to normal lymphocytes” value with normal lymphocytes was “mild affinity”.

The values above are taken from paper PMC3335845, “In-Vivo Biodistribution and Safety of ^99mTc-LLP2A-HYNIC in Canine Non-Hodgkin Lymphoma” (PLoS ONE, 2012).
